Tests used:
Assay type in all cases: biochemical
[1] = target: human JAK1 (a.a. 837-1142) (Homo sapiens, UniProt P23458); experiment: In vitro JAK kinase assay (HTRF, phosphorylation of a biotinylated peptide), JAK1; conditions: measured at 1 mM ATP
In short: (§1)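 N-terminal His-tagged catalytic domains, baculovirus-expressed in insect cells, phosphorylated a biotinylated peptide for 1 hr at room temperature. EDTA stop was followed by SA-APC and Eu-Py20 antibody for 40 minutes, with phosphopeptide read by HTRF.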

[2] = target: human JAK1 (a.a. 837-1142); experiment: as above; conditions: ratio of JAK2 IC50 to JAK1 IC50, measured at 1 mM ATP
In short: as §1

Jak2 (a.a. 828-1132) = Jak2 (a.a. 828-1132) (Homo sapiens (Human), UniProt O60674); experiment: In vitro JAK kinase assay (HTRF, phosphorylation of a biotinylated peptide), JAK2; conditions: measured at 1 mM ATP
Jak2 (a.a. 828-1132), sequence (O60674 828-1132): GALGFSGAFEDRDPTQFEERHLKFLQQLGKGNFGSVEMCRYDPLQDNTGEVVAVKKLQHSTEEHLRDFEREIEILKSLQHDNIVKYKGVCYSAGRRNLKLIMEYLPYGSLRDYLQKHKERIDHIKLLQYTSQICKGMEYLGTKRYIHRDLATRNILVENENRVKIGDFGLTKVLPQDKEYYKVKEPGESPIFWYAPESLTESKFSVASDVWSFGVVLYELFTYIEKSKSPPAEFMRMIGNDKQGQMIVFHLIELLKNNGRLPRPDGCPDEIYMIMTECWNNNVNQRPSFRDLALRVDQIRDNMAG
In short: as §1

Row | IC50 [1] [µM] | IC50 Ratio JAK2/JAK1 [2] | IC50 (Jak2 (a.a. 828-1132)) [µM] | Structure (SMILES)
1 | ≤ 0.005 | 2.5 | ≤ 0.01 | COC(=O)c1cc(F)ccc1NC(=O)N1CCC(N2CC(CC#N)(n3cc(-c4ncnc5[nH]ccc45)cn3)C2)CC1 [Example 207, methyl 2-{[(4-{3-(cyanomethyl)-3-[4-(7H-pyrrolo[2,3-d]pyrimidin-4-yl)-1H-pyrazol-1-yl]azetidin-1-yl}piperidin-1-yl)carbonyl]amino}-5-fluorobenzoate]
2 | ≤ 0.005 | 4.8 | 0.01 to 0.05 | COC(=O)c1ccc(NC(=O)N2CCC(N3CC(CC#N)(n4cc(-c5ncnc6[nH]ccc56)cn4)C3)CC2)c(F)c1 [Example 208, methyl 4-{[(4-{3-(cyanomethyl)-3-[4-(7H-pyrrolo[2,3-d]pyrimidin-4-yl)-1H-pyrazol-1-yl]azetidin-1-yl}piperidin-1-yl)carbonyl]amino}-3-fluorobenzoate]
3 | ≤ 0.005 | 19.0 | 0.01 to 0.05 | CN(C)c1ccc(CN2CCC(N3CC(CC#N)(n4cc(-c5ncnc6[nH]ccc56)cn4)C3)CC2)c(F)c1C#N [Example 209, 3-[(4-{3-(Cyanomethyl)-3-[4-(7H-pyrrolo[2,3-d]pyrimidin-4-yl)-1H-pyrazol-1-yl]azetidin-1-yl}piperidin-1-yl)methyl]-6-(dimethylamino)-2-fluorobenzonitrile]
4 | ≤ 0.005 | 4.3 | ≤ 0.01 | N#CCC1(n2cc(-c3ncnc4[nH]ccc34)cn2)CN(C2CCN(Cc3cc(Cl)cc(Cl)c3)CC2)C1 [Example 210, {1-[1-(3,5-dichlorobenzyl)piperidin-4-yl]-3-[4-(7H-pyrrolo[2,3-d]pyrimidin-4-yl)-1H-pyrazol-1-yl]azetidin-3-yl}acetonitrile]
5 | 0.005 to 0.02 | 5.0 | 0.01 to 0.05 | N#CCC1(n2cc(-c3ncnc4[nH]ccc34)cn2)CN(C2CCN(Cc3cc(C(F)(F)F)ccc3Cl)CC2)C1 [Example 211, {1-{1-[2-chloro-5-(trifluoromethyl)benzyl]piperidin-4-yl}-3-[4-(7H-pyrrolo[2,3-d]pyrimidin-4-yl)-1H-pyrazol-1-yl]azetidin-3-yl}acetonitrile]
6 | 0.005 to 0.02 | 7.8 | 0.05 to 0.1 | N#CCC1(n2cc(-c3ncnc4[nH]ccc34)cn2)CN(C2CCN(Cc3cccc(C(F)(F)F)c3F)CC2)C1 [Example 212, {1-{-[2-fluoro-3-(trifluoromethyl)benzyl]piperidin-4-yl}-3-[4-(7H-pyrrolo[2,3-d]pyrimidin-4-yl)-1H-pyrazol-1-yl]azetidin-3-yl}acetonitrile]
7 | ≤ 0.005 | 9.7 | 0.01 to 0.05 | N#CCC1(n2cc(-c3ncnc4[nH]ccc34)cn2)CN(C2CCN(Cc3c(F)cccc3C(F)(F)F)CC2)C1 [Example 213, {1-{1-[2-fluoro-6-(trifluoromethyl)benzyl]piperidin-4-yl}-3-[4-(7H-pyrrolo[2,3-d]pyrimidin-4-yl)-1H-pyrazol-1-yl]azetidin-3-yl}acetonitrile]
8 | 0.005 to 0.02 | 2.5 | 0.01 to 0.05 | N#CCC1(n2cc(-c3ncnc4[nH]ccc34)cn2)CN(C2CCN(Cc3cc4ccccc4nc3Cl)CC2)C1 [Example 214, {1-{1-[(2-chloroquinolin-3-yl)methyl]piperidin-4-yl}-3-[4-(7H-pyrrolo[2,3-d]pyrimidin-4-yl)-1H-pyrazol-1-yl]azetidin-3-yl}acetonitrile]
9 | ≤ 0.005 | 5.7 | 0.01 to 0.05 | N#CCC1(n2cc(-c3ncnc4[nH]ccc34)cn2)CN(C2CCN(Cc3cc(F)cc(F)c3)CC2)C1 [Example 215, {1-[1-(3,5-difluorobenzyl)piperidin-4-yl]-3-[4-(7H-pyrrolo[2,3-d]pyrimidin-4-yl)-1H-pyrazol-1-yl]azetidin-3-yl}acetonitrile]
10 | 0.02 to 0.03 | 2.6 | 0.05 to 0.1 | COc1cccc(F)c1CN1CCC(N2CC(CC#N)(n3cc(-c4ncnc5[nH]ccc45)cn3)C2)CC1 [Example 218, {1-[1-(2-fluoro-6-methoxybenzyl)piperidin-4-yl]-3-[4-(7H-pyrrolo[2,3-d]pyrimidin-4-yl)-1H-pyrazol-1-yl]azetidin-3-yl}acetonitrile]
11 | 0.005 to 0.02 | 2.4 | 0.01 to 0.05 | N#CCC1(n2cc(-c3ncnc4[nH]ccc34)cn2)CN(C2CCN(Cc3cccc(Cl)c3Cl)CC2)C1 [Example 219, {1-[1-(2,3-dichlorobenzyl)piperidin-4-yl]-3-[4-(7H-pyrrolo[2,3-d]pyrimidin-4-yl)-1H-pyrazol-1-yl]azetidin-3-yl}acetonitrile]
12 | 0.005 to 0.02 | 4.4 | 0.05 to 0.1 | N#CCC1(n2cc(-c3ncnc4[nH]ccc34)cn2)CN(C2CCN(Cc3ccc(F)c(C#N)c3)CC2)C1 [Example 220, 5-[(4-{3-(cyanomethyl)-3-[4-(7H-pyrrolo[2,3-d]pyrimidin-4-yl)-1H-pyrazol-1-yl]azetidin-1-yl}piperidin-1-yl)methyl]-2-fluorobenzonitrile]
13 | 0.005 to 0.02 | 1.3 | 0.01 to 0.05 | N#CCC1(n2cc(-c3ncnc4[nH]ccc34)cn2)CN(C2CCN(Cc3ccc(-c4conn4)cc3)CC2)C1 [Example 221, {1-{1-[4-(1,2,3-oxadiazol-4-yl)benzyl]piperidin-4-yl}-3-[4-(7H-pyrrolo[2,3-d]pyrimidin-4-yl)-1H-pyrazol-1-yl]azetidin-3-yl}acetonitrile]
14 | 0.005 to 0.02 | 5.9 | 0.01 to 0.05 | N#CCC1(n2cc(-c3ncnc4[nH]ccc34)cn2)CN(C2CCN(Cc3cccc(C#N)c3)CC2)C1 [Example 223, 3-[(4-{3-(cyanomethyl)-3-[4-(7H-pyrrolo[2,3-d]pyrimidin-4-yl)-1H-pyrazol-1-yl]azetidin-1-yl}piperidin-1-yl)methyl]benzonitrile]
15 | 0.02 to 0.03 | 2.4 | 0.05 to 0.1 | COc1nc(CN2CCC(N3CC(CC#N)(n4cc(-c5ncnc6[nH]ccc56)cn4)C3)CC2)ccc1C#N [Example 224, 6-[(4-{3-(cyanomethyl)-3-[4-(7H-pyrrolo[2,3-d]pyrimidin-4-yl)-1H-pyrazol-1-yl]azetidin-1-yl}piperidin-1-yl)methyl]-2-methoxynicotinonitrile]
16 | ≤ 0.005 | 3.8 | 0.01 to 0.05 | N#CCC1(n2cc(-c3ncnc4[nH]ccc34)cn2)CN(C2CCN(Cc3cc(Br)nc(Br)c3)CC2)C1 [Example 225, {1-{1-[(2,6-dibromopyridin-4-yl)methyl]piperidin-4-yl}-3-[4-(7H-pyrrolo[2,3-d]pyrimidin-4-yl)-1H-pyrazol-1-yl]azetidin-3-yl}acetonitrile]
17 | 0.005 to 0.02 | 1.9 | 0.01 to 0.05 | N#CCC1(n2cc(-c3ncnc4[nH]ccc34)cn2)CN(C2CCN(Cc3ccnc(Br)c3)CC2)C1 [Example 226, {1-{1-[(2-bromopyridin-4-yl)methyl]piperidin-4-yl}-3-[4-(7H-pyrrolo[2,3-d]pyrimidin-4-yl)-1H-pyrazol-1-yl]azetidin-3-yl}acetonitrile]
18 | ≤ 0.005 | 7.9 | ≤ 0.01 | N#CCC1(n2cc(-c3ncnc4[nH]ccc34)cn2)CN(C2CCN(Cc3c(F)cccc3Cl)CC2)C1 [Example 227, {1-[1-(2-chloro-6-fluorobenzyl)piperidin-4-yl]-3-[4-(7H-pyrrolo[2,3-d]pyrimidin-4-yl)-1H-pyrazol-1-yl]azetidin-3-yl}acetonitrile]
19 | ≤ 0.005 | 3.9 | ≤ 0.01 | N#CCC1(n2cc(-c3ncnc4[nH]ccc34)cn2)CN(C2CCN(Cc3c(F)ccc(Cl)c3F)CC2)C1 [Example 228, {1-[1-(3-chloro-2,6-difluorobenzyl)piperidin-4-yl]-3-[4-(7H-pyrrolo[2,3-d]pyrimidin-4-yl)-1H-pyrazol-1-yl]azetidin-3-yl}acetonitrile]
20 | 0.005 to 0.02 | 6.4 | 0.05 to 0.1 | N#CCC1(n2cc(-c3ncnc4[nH]ccc34)cn2)CN(C2CCN(Cc3ccc(C#N)c(F)c3)CC2)C1 [Example 229, 4-[(4-{3-(cyanomethyl)-3-[4-(7H-pyrrolo[2,3-d]pyrimidin-4-yl)-1H-pyrazol-1-yl]azetidin-1-yl}piperidin-1-yl)methyl]-2-fluorobenzonitrile]
21 | 0.005 to 0.02 | 9.3 | > 0.1 | Cc1onc(-c2ccccc2)c1CN1CCC(N2CC(CC#N)(n3cc(-c4ncnc5[nH]ccc45)cn3)C2)CC1 [Example 230, {1-{1-[(5-methyl-3-phenylisoxazol-4-yl)methyl]piperidin-4-yl}-3-[4-(7H-pyrrolo[2,3-d]pyrimidin-4-yl)-1H-pyrazol-1-yl]azetidin-3-yl}acetonitrile]
22 | 0.005 to 0.02 | 5.1 | 0.05 to 0.1 | N#CCC1(n2cc(-c3ncnc4[nH]ccc34)cn2)CN(C2CCN(Cc3ccnc(C(F)(F)F)c3F)CC2)C1 [Example 231, {1-(1-{[3-fluoro-2-(trifluoromethyl)pyridin-4-yl]methyl}piperidin-4-yl)-3-[4-(7H-pyrrolo[2,3-d]pyrimidin-4-yl)-1H-pyrazol-1-yl]azetidin-3-yl}acetonitrile]
23 | 0.005 to 0.02 | 0.7 | ≤ 0.01 | N#CCC1(n2cc(-c3ncnc4[nH]ccc34)cn2)CN(C2CCN(Cc3cc4ccccc4o3)CC2)C1 [Example 232, {1-[1-(1-benzofuran-2-ylmethyl)piperidin-4-yl]-3-[4-(7H-pyrrolo[2,3-d]pyrimidin-4-yl)-1H-pyrazol-1-yl]azetidin-3-yl}acetonitrile]

— patent US9999619B2, “Piperidin-4-yl azetidine derivatives as JAK1 inhibitors” (Incyte Corporation, priority 2010, dated 2018)
